Laboratory results from patent publication US20200024278A1, “COMPOSITION COMPRISING ANTIBIOTIC COMPOUND AND AN HETEROCYCLIC COMPOUND AND THEIR USE IN PREVENTING OR TREATING BACTERIAL INFECTIONS” (MUTABILIS, priority 2016, published 2020).
Read-outs that look alike come from different tables or passages of the source.

Assays:
Test in all cases: MIC, broth microdilution (CLSI), substance alone or ATB combined with compound at 4 or 8 μg/mL
ECL P99 = assay type: cell-based, E. cloacae; conditions: Enterobacter cloacae, ECL P99
Method in brief: (§1)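 Broth microdilution; ca-MHB; 5·10^5 CFU/mL; 35° C, 16-20 h; compound alone or fixed 4/8 μg/mL with antibiotic series; endpoint = no visible growth.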

KPN BAA-1898 = assay type: cell-based, K. pneumoniae; conditions: Klebsiella pneumoniae, BAA1898, KPN BAA-1898
Method in brief: as §1

KPN 6299 = assay type: cell-based, K. pneumoniae; conditions: Klebsiella pneumoniae, antibiotic alone, read-out: MIC ATB alone
Method in brief: as §1

KPN UFR42 = assay type: cell-based, K. pneumoniae; conditions: Klebsiella pneumoniae; antibiotic alone; KPN UFR42; read-out: MIC ATB alone
Method in brief: as §1

ECO UFR39 = assay type: cell-based, E. coli; conditions: Escherichia coli; antibiotic alone; ECO UFR39; read-out: MIC ATB alone
Method in brief: as §1

ECO 190317 = assay type: cell-based, E. coli; conditions: Escherichia coli; antibiotic alone; ECO 190317; read-out: MIC ATB alone
Method in brief: as §1

PAE UFR48 = assay type: cell-based, P. aeruginosa; conditions: Pseudomonas aeruginosa, PAE UFR48
Method in brief: as §1

PAE UFR90 = assay type: cell-based, P. aeruginosa; conditions: Pseudomonas aeruginosa, PAE UFR90
Method in brief: as §1

PAE 105250 = assay type: cell-based, P. aeruginosa; conditions: Pseudomonas aeruginosa, PAE 105250
Method in brief: as §1

SAU 29213 = assay type: cell-based, S. aureus; conditions: Staphylococcus aureus
Method in brief: as §1

ABA 19606 = assay type: cell-based, A. baumannii
Method in brief: as §1

ABA 107292 = assay type: cell-based, A. baumannii
Method in brief: as §1

SPN 49619 = assay type: cell-based, S. pneumoniae; conditions: Streptococcus pneumoniae, SPN 49619
Method in brief: as §1

[1] = antibiotic alone, read-out: MIC ATB alone
[2] = Acinetobacter baumannii, antibiotic alone, read-out: MIC ATB alone

CO/N=C(\C(=O)N[C@@H]1C(=O)N2C(C(=O)[O-])=C(C[N+]3(C)CCCC3)CS[C@H]12)c1csc(N)n1 [FEP, Cefepime]
MIC (ECL P99; [1]): 2 µg/mL | MIC (ECL P99; substance alone, read-out: MIC): 2 µg/mL | MIC (KPN BAA-1898; [1]): 64 µg/mL | MIC (KPN BAA-1898; substance alone, read-out: MIC): 64 µg/mL | MIC (KPN 6299): 128 µg/mL | MIC (KPN UFR42): 128 µg/mL | MIC (ECO UFR39): > 128 µg/mL | MIC (ECO 190317): 512 µg/mL | MIC (PAE UFR48; [1]): 64 µg/mL | MIC (PAE UFR48; substance alone, read-out: MIC): 64 µg/mL | MIC (PAE UFR90; [1]): 16 µg/mL | MIC (PAE UFR90; substance alone, read-out: MIC): 16 µg/mL | MIC (PAE 105250; [1]): 8 µg/mL | MIC (PAE 105250; substance alone, read-out: MIC): 8 µg/mL | MIC (SAU 29213; antibiotic alone, SAU 29213, read-out: MIC ATB alone): 4 µg/mL | MIC (SAU 29213; substance alone, SAU 29213 (MSSA 29213), read-out: MIC): 4 µg/mL | MIC (ABA 19606; [2]): 16 µg/mL | MIC ATB combined with Example 1 @8 μg/ml (ABA 19606; with Example 1 @8 μg/ml): 32 µg/mL | MIC ATB combined with Example 3 @8 μg/ml (ABA 19606; with Example 3 @8 μg/ml): 8 µg/mL | MIC ATB combined with Example 6 @8 μg/ml (ABA 19606; with Example 6 @8 μg/ml): <=0.25 μg/mL | MIC ATB combined with Example 9 @4 μg/ml (ABA 19606; with Example 9 @4 μg/ml): 16 µg/mL | MIC ATB combined with Example 10 @8 μg/ml (ABA 19606; with Example 10 @8 μg/ml): 8 µg/mL | MIC ATB combined with Example 11 @8 μg/ml (ABA 19606; with Example 11 @8 μg/ml): 16 µg/mL | MIC ATB combined with Example 12 @8 μg/ml (ABA 19606; with Example 12 @8 μg/ml): 8 µg/mL | MIC ATB combined with Example 15 @4 μg/ml (ABA 19606; with Example 15 @4 μg/ml): 16 µg/mL | MIC (ABA 107292; [2]): 64 µg/mL | MIC ATB combined with Example 1 @8 μg/ml (ABA 107292; with Example 1 @8 μg/ml): 64 µg/mL | MIC ATB combined with Example 3 @8 μg/ml (ABA 107292; with Example 3 @8 μg/ml): 8 µg/mL | MIC ATB combined with Example 6 @8 μg/ml (ABA 107292; with Example 6 @8 μg/ml): 16 µg/mL | MIC ATB combined with Example 9 @4 μg/ml (ABA 107292; with Example 9 @4 μg/ml): 16 µg/mL | MIC ATB combined with Example 10 @8 μg/ml (ABA 107292; with Example 10 @8 μg/ml): 16 µg/mL | MIC ATB combined with Example 11 @8 μg/ml (ABA 107292; with Example 11 @8 μg/ml): 32 µg/mL | MIC ATB combined with Example 12 @8 μg/ml (ABA 107292; with Example 12 @8 μg/ml): 8 µg/mL | MIC ATB combined with Example 15 @4 μg/ml (ABA 107292; with Example 15 @4 μg/ml): 32 µg/mL | MIC (SPN 49619; [1]): 0.063 µg/mL | MIC (SPN 49619; substance alone, read-out: MIC): 0.063 µg/mL
